# T1: TGF-beta2 (Homo sapiens, UniProt P61812)
# T1 sequence (P61812 303-414 limits assumed): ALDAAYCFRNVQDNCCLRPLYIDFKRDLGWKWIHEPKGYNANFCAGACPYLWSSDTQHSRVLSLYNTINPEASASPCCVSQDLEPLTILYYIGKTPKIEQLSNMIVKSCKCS
# T2: TGF-beta3 (Homo sapiens, UniProt P10600)
# T2 sequence (P10600 301-412 limits assumed): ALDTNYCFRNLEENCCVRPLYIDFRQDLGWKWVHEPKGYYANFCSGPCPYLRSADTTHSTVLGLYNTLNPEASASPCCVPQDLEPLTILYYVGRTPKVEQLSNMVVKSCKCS
# B1: CAT-152: fully human TGF-beta2 neutralizing antibody (antibody, chains of the INN, looked up, V domains shown)
# VH: EVQLVESGGGVVQPGRSLRLSCAASGFTFSSYGMHWVRQAPGKGLEWVAVIWYDGSNKYYADSVKGRFTISRDNSKNTLYLQMDSLRAEDTAVYYCGRTLESSLWGQGTLVTVSS
# VL: SSELTQDPAVSVALGQTVRITCQGDSLRSYYASWYQQKPGQAPVLVIYGKNNRPSGIPDRFSGSSSGNTASLTITGAQAEDEADYYCNSRDSSSTHRGVFGGGTKLTVL
# How the values were obtained:
# mitral VEC [1] = test: EndMT assay with qPCR in TGFβ1-treated mitral VEC clones; format: cell-based, Ovine; conditions: for NFATc1 mRNA / αSMA, Slug, MMP-2, collagen 1, collagen 3, TGFβ1, TGFβ2 and TGFβ3 mRNA levels: inhibitor 0.5 μM during the 4 day TGFβ1 treatment, mitral VEC clones
# Description: (§1) Ovine mitral VEC and CAEC were plated at 10,000 cells/cm^2 on gelatin-coated dishes. After 24 hours, EBM-B was replaced with fresh EBM-B containing 1 ng/ml human TGFβ1 (R&D Systems, MN, USA). Cells were harvested with Liberase ([…]) 96 hours later, and used for flow cytometry. Cells were analyzed simultaneously for VE-cadherin, α-SMA and CD45 by flow cytometry as described above.
# (§2) Total cellular RNA was extracted from mitral VEC clones (C5, D1, E5, E10 and E10-2) and CAEC (n=2) with an RNeasy Micro extraction kit (Qiagen, Valencia, Calif., #74004). Reverse transcriptase reactions were performed using an iScript cDNA Synthesis Kit (Bio-Rad, CA, USA #170-8890). qPCR was performed using Kapa Sybr Fast ABI Prism 2×qPCR Master Mix (KAPA BioSystems, MA, USA # KK4604). Amplification was carried out in an ABI 7500 (Applied Biosystems, Foster City, Calif.). A standard curve for each gene was generated to determine amplification efficiency. RPS9 was used as housekeeping gene expression reference. Fold increases in gene expression were calculated according to 2 delta Ct method^28,29, with each amplification reaction performed in triplicate.
# [2] = test system: carotid artery endothelial cells (CAEC); test: EndMT assay with qPCR in TGFβ1-treated CAEC; format: cell-based, Ovine; conditions: for EndMT and fibrosis marker mRNA in CAEC: presence or absence of inhibitor
# Description: as §1, §2
# mitral VEC [3] = test: Cellular migration assay (Transwell), mitral VEC clones; format: cell-based, Ovine; conditions: for EndMT-increased migration towards serum and bFGF: TGFβ-treated mitral VEC clones (n=3), inhibitor 1.0 μM 30 min before and during 6 hour assay
# Description: (§3) The lower chambers contained 0.1% BSA/EBM-2 media alone or EBM with serum and basic FGF as a chemoattractants. Cells were allowed to migrate for 6 hours at 37° C. (FIG. 6) Cells that migrated through the pores were fixed with methanol and stained with Eosin-Y, Azure A and Methylene Blue for visualization and quantification using Three Step Stain Set (VWR, PA, USA #48218-567).
# [4] = test system: carotid artery endothelial cells (CAEC); test: Cellular migration assay (Transwell), CAEC; format: cell-based, Ovine; conditions: 6 hour assay; for Migration of CAEC, response to inhibitor: control and TGFβ1-treated CAEC, inhibitor 1.0 μM
# Description: as §3
# mitral VEC [5] = test: EndMT assay with flow cytometry, mitral VEC clones; format: cell-based, Ovine
# Description: (§4) Ovine MVs were minced and digested for 30 minutes at 37° C. with Liberase (Roche Diagnostics, IN, USA, #5401119001), a blend of purified collagenases I and II. Isolated cells were fixed using Flow Cytometry Fixation Buffer (R&D Systems, MN, USA, #FC004) and labeled in Flow Cytometry Permeabilization/Wash Buffer I (R&D Systems, MN, USA, #FC005) for 45 minutes (100,000 cells/100 μl Buffer I). Murine anti-human CD45-FITC or -APC (1:50; AbD Serotec, NC, USA, # MCA2220F and #559864), VE-cadherin-PE or -FITC (1:100; R&D Systems, MN, USA, # FAB9381P and AbD Serotec, NC, USA, # AHP628F), and α-smooth muscle actin (αSMA)-APC or -PE (1:100; R&D Systems, MN, USA, # IC1420P and # IC1420A) were used.
# as §1
# [6] = test system: carotid artery endothelial cells (CAEC); test: EndMT assay with flow cytometry, CAEC; format: cell-based, Ovine; conditions: TGFβ-treated and non-treated CAECs
# Description: as §4, §1
# [7] = test system: early stage diffuse cutaneous systemic sclerosis; conditions: cited from earlier work
# TGF-β = conditions: cited from earlier work
# TGF-beta2 = molecular target: T1, TGF-beta2; conditions: cited from earlier work
# TGF-beta3 = molecular target: T2, TGF-beta3; conditions: cited from earlier work
# [8] = test system: scarring after glaucoma surgery; conditions: rabbits; cited from earlier work
# scar formation = conditions: first clinical trials; intractable glaucoma patients, trabeculectomy; cited from earlier work
# [9] = qPCR, listed as CD45 phosphatase inhibitor
# [10] = listed as CD45 phosphatase inhibitor
molecule,measurement,setting,value
"TGFβ1: human TGFβ1 (R&D Systems), used at 1 ng/ml to induce EndMT","Collagen 1, collagen 3, TGFβ1, TGFβ2 and TGFβ3 mRNA transcripts","mitral VEC [1]; TGFβ1-treated mitral VEC clones, qPCR",increased
same,"Slug, MMP2 and NFATc1 mRNA","mitral VEC [1]; TGFβ1-treated mitral VEC, qPCR",modulated as expected
same,CD45 and αSMA mRNA,"mitral VEC [1]; five mitral VEC clones, TGFβ1 4 days, qPCR",significant increases
same,"CD45, VE-cadherin or αSMA mRNA levels in CAEC",[2],No changes
same,migration towards serum and bFGF after TGFβ treatment,"mitral VEC [3]; mitral VEC clones (n=3), TGFβ1 4 days, 6 hour assay",significantly increased
same,migration of CAEC after TGFβ treatment,[4]; CAEC,no increase
same,"α-SMA, flow cytometry",mitral VEC [5]; TGFβ1-treated mitral VEC clones,significantly increased
same,"CD11b and CD14 expression, flow cytometry","mitral VEC [5]; TGFβ1-treated mitral VEC, data not shown",No expression was detected
same,cells positive for CD45,mitral VEC [5]; four additional mitral VEC clones treated with TGFβ1 1 ng/ml 96 hours,19-88%
same,"CD45 and αSMA expression, flow cytometry","mitral VEC [5]; mitral VEC clone E10, 1 ng/ml TGFβ1, 96 hours",strong induction
same,"CD45, flow cytometry","mitral VEC [5]; seven mitral VEC clones, 4 day exposure to TGFβ1",significantly increased
same,"CD45 or αSMA expression in CAEC, flow cytometry",[6],did not express
CAT-192: a TGF-β1 neutralizing antibody,adverse events,[7]; in vivo,more adverse events
same,effect on early stage diffuse cutaneous systemic sclerosis,[7]; phase I/II trial NCT00043706,did not show effect
"CC(C)(C)C(=O)Nc1ccc2c(c1)C(=O)C(=O)c1ccccc1-2 [CD45 PTPase inhibitor, N-(9,10-dioxo-9,10-dihydro-phenanthren-2-yl)-2,2-dimethyl propionamide]",NFATc1 mRNA,mitral VEC [1]; qPCR,restored
same,"αSMA, Slug, MMP-2, collagen 1, collagen 3, TGFβ1, TGFβ2 and TGFβ3 mRNA levels",mitral VEC [1]; qPCR,significantly reduced
same,NFATc1 mRNA,mitral VEC [1]; [9],blocks the decrease
same,"αSMA, Slug, MMP-2, collagen 1, collagen 3, TGFβ1, TGFβ2 and TGFβ3 mRNA levels",mitral VEC [1]; [9],reduces
same,"induction of 7 EndMT/fibrosis markers (α-SMA, Slug, MMP2, NFATc1, TGFβ2, collagen 1 and collagen 3)",mitral VEC [1]; summary statement,blocks
same,EndMT and fibrosis marker mRNA in CAEC,[2],no changes
same,EndMT and fibrosis marker mRNA in CAEC,[2]; [10],no effect
same,EndMT-increased migration towards serum and bFGF,mitral VEC [3],significantly inhibited
same,EndMT-increased migration towards serum and bFGF,mitral VEC [3]; [10],specifically blocks
same,"Migration of CAEC, response to inhibitor",[4],no response
same,"Migration of CAEC, response to inhibitor",[4]; [10],no effect
"Cc1ccc(=O)n(-c2ccccc2)c1 [Pirfenidone, 5-methyl-1-phenyl-2(1H)-pyridone]","TGF-β promoter activity, TGF-β protein secretion, TGF-β-induced Smad2 phosphorylation and generation of reactive oxygen species",TGF-β,reduces
B1,affinity for TGF-beta2,TGF-beta2,high affinity
same,affinity for TGF-beta3,TGF-beta3,lower affinity
same,scarring after glaucoma surgery,[8],capable of inhibiting
same,scar formation,scar formation,possible effects
